Where a name gives a salt, the structure may show the parent alone.
Legend:
[1] = tested on: MKN45 cells; assay: Test D: cellular proliferation by 14C-thymidine pulse, MKN45 cells; assay type: cell-based; conditions: cell line not stated (HCT116 or MKN45)
How it was run: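 MKN45 cells (7500/well, RPMI + 10% foetal calf serum) treated with 10 concentrations, 10000 to 0.3 nM in 3-fold steps, duplicate. 14C-thymidine (0.1 μCi/well) added at 72 h; incorporation counted after 24 h pulse, 96 h total treatment.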

[2] = target: T1, c-MET (Homo sapiens, UniProt P08581); assay: Test A: HTRF Met test in 96-well format; assay type: biochemical
T1 construct: The recombinant DNA His-Tev-MET (956-1390) in pFastBac(Invitrogen); His (N, cleaved yes); Tev (TEV protease site) (N, cleaved yes); made in house; host or cells: SF21 insect cells (baculovirus, pFastBac)
T1 sequence (P08581 956-1390): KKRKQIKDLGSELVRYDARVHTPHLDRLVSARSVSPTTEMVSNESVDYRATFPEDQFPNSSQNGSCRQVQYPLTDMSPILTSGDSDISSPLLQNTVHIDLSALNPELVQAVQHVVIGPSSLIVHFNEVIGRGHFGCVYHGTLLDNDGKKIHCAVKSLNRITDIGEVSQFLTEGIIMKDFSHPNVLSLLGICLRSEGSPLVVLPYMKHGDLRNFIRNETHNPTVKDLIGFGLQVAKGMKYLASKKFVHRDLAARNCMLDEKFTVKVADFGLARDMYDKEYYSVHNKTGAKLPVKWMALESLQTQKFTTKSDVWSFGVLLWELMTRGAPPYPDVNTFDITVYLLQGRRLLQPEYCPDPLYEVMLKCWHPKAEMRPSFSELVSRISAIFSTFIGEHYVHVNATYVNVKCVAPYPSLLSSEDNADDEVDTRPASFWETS
How it was run: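 Percent inhibition was calculated from the HTRF 665/620 ratio, using Eu-cryptate anti-phosphotyrosine PT66 plus streptavidin-XL added with EDTA and read after 2 h. The reaction ran 10 min at room temperature: 5 nM tag-cleaved MET (956–1390), 10 µM ATP, 1 µg/ml poly-GAT, and compound from 0.17 nM to 10 µM in 3% DMSO.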

[3] = Homo sapiens, MKN-45, cellular proliferation by 14C-thymidine pulse
[4] = cellular proliferation by 14C-thymidine pulse

Row | Compound | melting point | IC50 [1, 3] | IC50 [2] | IC50 [1, 4]
1 | O=C(NCCN1CCOCC1)Nc1nc2ccc(OCc3c(Cl)cccc3Cl)cc2s1 [Example 10, 1-{6-[(2,6-dichlorobenzyl)oxy]-1,3-benzothiazol-2-yl}-3-(2-morpholin-4-ylethyl)urea] | 268 to 271 °C | 0.5 to 10 µM | < 0.1 µM | –
2 | CC(Oc1ccc2nc(NC(=O)NCCN3CCN(C(=O)OC(C)(C)C)CC3)sc2c1)c1c(Cl)ccc(F)c1Cl (stereo not shown) [Example 36, 1,1-dimethylethyl 4-{2-[({6-[1-(2,6-dichloro-3-fluorophenyl)ethoxy]-1,3-benzothiazol-2-yl}carbamoyl)amino]ethyl}piperazine-1-carboxylate] | 87 °C | > 10 µM | < 0.1 µM | –
3 | COCCCNC(=O)Nc1nc2cc(F)c(OC(C)c3c(Cl)ccc(F)c3Cl)cc2s1 (stereo not shown) [Example 104, 1-{6-[1-(2,6-dichloro-3-fluorophenyl)ethoxy]-5-fluoro-1,3-benzothiazol-2-yl}-3-(3-methoxypropyl)urea] | 175 °C | 0.5 to 10 µM | < 0.1 µM | –
4 | Cc1ccc(F)c(C(C)Oc2ccc3nc(NC(=O)NCCN4CCOCC4)sc3c2)c1Cl (stereo not shown) [Example 28, 1-{6-[1-(2-chloro-6-fluoro-3-methylphenyl)ethoxy]-1,3-benzothiazol-2-yl}-3-(2-morpholin-4-ylethyl)urea] | 165 to 170 °C | > 10 µM | < 0.1 µM | –
5 | CC(Oc1ccc2nc(NC(=O)NCCN3CCOCC3)[nH]c2c1)c1cc(F)ccc1Cl (stereo not shown) [Example 3, 1-{6-[1-(2-chloro-5-fluorophenyl)ethoxy]-1H-benzimidazol-2-yl}-3-(2-morpholin-4-ylethyl)urea] | 210 °C | 0.5 to 10 µM | < 0.1 µM | –
6 | CC(Oc1cc2sc(NC(=O)NCCN3CCN(C)CC3)nc2cc1F)c1c(F)ccc(Cl)c1Cl (stereo not shown) [Example 115, 1-{6-[1-(2,3-dichloro-6-fluorophenyl)ethoxy]-5-fluoro-1,3-benzothiazol-2-yl}-3-[2-(4-methylpiperazin-1-yl)ethyl]urea] | 120 °C | < 0.5 µM | < 0.1 µM | –
7 | CC(Oc1ccc2nc(NC(=O)NCCN3CCOCC3)sc2c1)c1c(Cl)ccc(F)c1Cl (stereo not shown) [Example 24, 1-{6-[1-(2,6-dichloro-3-fluorophenyl)ethoxy]-1,3-benzothiazol-2-yl}-3-(2-morpholin-4-ylethyl)urea] | 110 °C | < 0.5 µM | < 0.1 µM | –
8 | CC(Oc1ccc2nc(NC(=O)CCCN3CCOCC3)sc2c1)c1c(Cl)ccc(F)c1Cl (stereo not shown) [Example 65, N-{6-[1-(2,6-dichloro-3-fluorophenyl)ethoxy]-1,3-benzothiazol-2-yl}-4-(morpholin-4-yl)butanamide] | 141 to 145 °C | 0.5 to 10 µM | < 0.1 µM | –
9 | CC(Oc1cc2sc(NC(=O)NCCN3CCOCC3)nc2cc1F)c1c(Cl)ccc(F)c1Cl (stereo not shown) [Example 31, 1-{6-[1-(2,6-dichloro-3-fluorophenyl)ethoxy]-5-fluoro-1,3-benzothiazol-2-yl}-3-(2-morpholin-4-ylethyl)urea] | 226 to 228 °C | 0.5 to 10 µM | < 0.1 µM | –
10 | CC(Oc1cc2sc(NC(=O)CCCN3CCCC3)nc2cc1F)c1c(Cl)ccc(F)c1Cl (stereo not shown) [Example 68, N-{6-[1-(2,6-dichloro-3-fluorophenyl)ethoxy]-5-fluoro-1,3-benzothiazol-2-yl}-4-(pyrrolidin-1-yl)butanamide] | 153 to 157 °C | 0.5 to 10 µM | < 0.1 µM | –
11 | CC(Oc1cc2sc(NC(=O)NCCN3CCCC3)nc2cc1F)c1c(Cl)ccc(Cl)c1Cl (stereo not shown) [Example 126, 1-{5-fluoro-6-[1-(2,3,6-trichlorophenyl)ethoxy]-1,3-benzothiazol-2-yl}-3-[2-(pyrrolidin-1-yl)ethyl]urea] | 103 to 107 °C | 0.5 to 10 µM | < 0.1 µM | –
12 | CCN1CCN(CCNC(=O)Nc2nc3cc(F)c(OC(C)c4c(Cl)ccc(F)c4Cl)cc3s2)CC1 (stereo not shown) [Example 100, 1-{6-[1-(2,6-dichloro-3-fluorophenyl)ethoxy]-5-fluoro-1,3-benzothiazol-2-yl}-3-[2-(4-ethylpiperazin-1-yl)ethyl]urea] | 150 to 152 °C | < 0.5 µM | < 0.1 µM | –
13 | CC(Oc1cc2sc(NC(=O)NCCCN)nc2cc1F)c1c(Cl)ccc(F)c1Cl (stereo not shown) [Example 128, 1-(3-aminopropyl)-3-{6-[1-(2,6-dichloro-3-fluorophenyl)ethoxy]-5-fluoro-1,3-benzothiazol-2-yl}urea] | 163 °C | 0.5 to 10 µM | < 0.1 µM | –
14 | CC(Oc1ccc2nc(NC(=O)NCCN3CCN(Cc4ccccc4)CC3)sc2c1)c1c(Cl)ccc(F)c1Cl (stereo not shown) [Example 35, 1-[2-(4-benzylpiperazin-1-yl)ethyl]-3-{6-[1-(2,6-dichloro-3-fluorophenyl)ethoxy]-1,3-benzothiazol-2-yl}urea] | 125 to 139 °C | > 10 µM | < 0.1 µM | –
15 | O=C(NCCN1CCOCC1)Nc1nc2ccc(OC(c3c(Cl)cccc3Cl)C(F)(F)F)cc2s1 (stereo not shown) [Example 64, 1-{6-[1-(2,6-dichlorophenyl)-2,2,2-trifluoroethoxy]-1,3-benzothiazol-2-yl}-3-(2-morpholin-4-ylethyl)urea] | 150 to 160 °C | > 10 µM | < 0.1 µM | –
16 | CC(Oc1ccc2nc(NC(=O)NCCN3CCOCC3)sc2c1)c1ccccc1C(F)(F)F (stereo not shown) [Example 19, 1-(2-morpholin-4-ylethyl)-3-(6-{1-[2-(trifluoromethyl)phenyl]ethoxy}-1,3-benzothiazol-2-yl)urea] | – | > 10 µM | < 0.1 µM | –
17 | CC(Oc1cc2sc(NC(=O)NCCO)nc2cc1F)c1c(Cl)ccc(F)c1Cl (single isomer, unassigned) [Example 99, 1-{6-[(1R*)-1-(2,6-dichloro-3-fluorophenyl)ethoxy]-5-fluoro-1,3-benzothiazol-2-yl}-3-(2-hydroxyethyl)urea] | – | < 0.5 µM | < 0.1 µM | –
18 | CC(Oc1cc2sc(NC(=O)NCCN3CCN(C)CC3)nc2cc1F)c1c(F)ccc(Cl)c1Cl (single isomer, unassigned) [Example 117, 1-{6-[(1S*)-1-(2,3-dichloro-6-fluorophenyl)ethoxy]-5-fluoro-1,3-benzothiazol-2-yl}-3-[2-(4-methylpiperazin-1-yl)ethyl]urea] | – | – | < 0.1 µM | 0.5 to 10 µM
19 | C[C@@H](Oc1cc2sc(NC(=O)NCCN3CCOCC3)nc2cc1F)c1c(Cl)ccc(F)c1Cl (single isomer, unassigned) [Example 32, 1-{6-[(1R)-(2,6-dichloro-3-fluorophenyl)ethoxy]-5-fluoro-1,3-benzothiazol-2-yl}-3-(2-morpholin-4-ylethyl)urea or 1-{6-[(1S)-(2,6-dichloro-3-fluorophenyl)ethoxy]-5-fluoro-1,3-benzothiazol-2-yl}-3-(2-morpholin-4-ylethyl)urea] | – | – | < 0.1 µM | 0.5 to 10 µM
20 | C[C@@H](Oc1cc2sc(NC(=O)NCCN3CCOCC3)nc2cc1F)c1c(Cl)ccc(F)c1Cl (single isomer, unassigned) [Example 33, 1-{6-[(1R)-(2,6-dichloro-3-fluorophenyl)ethoxy]-5-fluoro-1,3-benzothiazol-2-yl}-3-(2-morpholin-4-ylethyl)urea or 1-{6-[(1S)-(2,6-dichloro-3-fluorophenyl)ethoxy]-5-fluoro-1,3-benzothiazol-2-yl}-3-(2-morpholin-4-ylethyl)urea] | – | – | < 0.1 µM | 0.5 to 10 µM
21 | CC(Oc1ccc2nc(NC(=O)NCc3ccncc3)sc2c1)c1c(Cl)ccc(F)c1Cl (stereo not shown) [Example 57, 1-{6-[1-(2,6-dichloro-3-fluorophenyl)ethoxy]-1,3-benzothiazol-2-yl}-3-(pyridin-4-ylmethyl)urea] | – | > 10 µM | < 0.1 µM | –
22 | CC(Oc1ccc2nc(NC(=O)NCCC3CCNCC3)sc2c1)c1c(Cl)ccc(F)c1Cl (stereo not shown) [Example 39, 1-{6-[1-(2,6-Dichloro-3-fluorophenyl)ethoxy]-1,3-benzothiazol-2-yl}-3-(2-piperidin-4-ylethyl)urea trifluoroacetate] | – | 0.5 to 10 µM | < 0.1 µM | –
23 | CC(Oc1ccc2nc(NC(=O)NCCN3CCCC3)sc2c1)c1c(F)ccc(Cl)c1Cl (single isomer, unassigned) [Example 121, 1-{6-[(1R*)-(2,3-dichloro-6-fluorophenyl)ethoxy]-1,3-benzothiazol-2-yl}-3-[2-(pyrrolidin-1-yl)ethyl]urea] | – | – | < 0.1 µM | < 0.5 µM
24 | CC(Oc1cc2sc(NC(=O)NCCN3CCN(C)CC3)nc2cc1F)c1c(F)ccc(Cl)c1Cl (single isomer, unassigned) [Example 116, 1-{6-[(1R*)-1-(2,3-dichloro-6-fluorophenyl)ethoxy]-5-fluoro-1,3-benzothiazol-2-yl}-3-[2-(4-methylpiperazin-1-yl)ethyl]urea] | – | < 0.5 µM | < 0.1 µM | –
25 | {6-[1-(2,6-dichloro-3-fluorophenyl)ethoxy]-5-fluoro-1,3-benzothiazol-2-yl}2-(pyrrolidin-1-yl)ethyl carbamate [Example 73] | – | – | < 0.1 µM | 0.5 to 10 µM
26 | CC(Oc1ccc2nc(NC(=O)NCCCN3C(C)CCCC3C)sc2c1)c1c(Cl)ccc(F)c1Cl (stereo not shown) [Example 47, 1-{6-[1-(2,6-dichloro-3-fluorophenyl)ethoxy]-1,3-benzothiazol-2-yl}-3-[3-(2,6-dimethylpiperidin-1-yl)propyl]urea] | – | 0.5 to 10 µM | < 0.1 µM | –

From patent US8188078B2 (Sanofi-Aventis, priority 2007, dated 2012)
